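Assay format: 96-well plates, 48-hour exposure. Definition used: TGI = concentration required for complete inhibition of growth.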 Where a SMILES comes first, the peptide text is derived from it. [ ]: non-standard residue; d: D form. ΔPro = O=C(O)[CH]1C=CCN1
How the values were obtained:
Experiment in all cases: DTP human tumour cell line panel, 48 h
ACHN renal = system: ACHN renal
OVCAR-8 ovarian = system: OVCAR-8 ovarian
SNB-19 CNS = system: SNB-19 CNS
SK-MEL-28 melanoma = system: SK-MEL-28 melanoma
HOP-62 NSCLC = system: HOP-62 NSCLC
SK-OV-3 ovarian = system: SK-OV-3 ovarian
OVCAR-5 ovarian = system: OVCAR-5 ovarian
IGROV1 ovarian = system: IGROV1 ovarian
KM12 colon = system: KM12 colon
SF-295 CNS = system: SF-295 CNS
UO-31 renal = system: UO-31 renal
786-0 renal = system: 786-0 renal
SF-268 CNS = system: SF-268 CNS
NCI-H23 lung = system: NCI-H23 lung
MOLT-4 leukemia = system: MOLT-4 leukemia
HL-60(TB) leukemia = system: HL-60(TB) leukemia

SMILES | TGI (ACHN renal) | TGI (OVCAR-8 ovarian) | TGI (SNB-19 CNS) | TGI (SK-MEL-28 melanoma) | TGI (HOP-62 NSCLC) | TGI (SK-OV-3 ovarian) | TGI (OVCAR-5 ovarian) | TGI (IGROV1 ovarian) | TGI (KM12 colon) | TGI (SF-295 CNS) | TGI (UO-31 renal) | TGI (786-0 renal) | TGI (SF-268 CNS) | TGI (NCI-H23 lung) | TGI (MOLT-4 leukemia) | TGI (HL-60(TB) leukemia)
COc1ccccc1-n1nnc2c(N)nc(N)nc21 | > 100 µM | > 100 µM | > 100 µM | > 100 µM | > 100 µM | > 100 µM | > 100 µM | > 100 µM | > 100 µM | > 100 µM | > 100 µM | > 100 µM | > 100 µM | > 100 µM | > 100 µM | > 100 µM
O=C(Sc1c(-c2ccccc2)c(=O)n(-c2ccccc2)c(=S)n1-c1ccccc1)c1ccccc1 | > 100 µM | > 100 µM | > 100 µM | > 100 µM | > 100 µM | > 100 µM | > 100 µM | > 100 µM | > 100 µM | > 100 µM | > 100 µM | > 100 µM | > 100 µM | > 100 µM | 73.3 µM | > 100 µM
CCc1n[nH]c(=O)n1CC | > 100 µM | > 100 µM | > 100 µM | > 100 µM | > 100 µM | > 100 µM | > 100 µM | > 100 µM | > 100 µM | > 100 µM | > 100 µM | > 100 µM | > 100 µM | > 100 µM | > 100 µM | > 100 µM
O=C1C=C(c2ccccc2)OC1C1Sc2ccccc2NC1=O (stereo unspecified) | > 62.6 µM | > 46.4 µM | > 82.8 µM | > 100 µM | > 19.8 µM | > 33.8 µM | > 100 µM | > 100 µM | > 100 µM | 27 µM | 76.1 µM | > 66.3 µM | > 100 µM | > 31.5 µM | > 40.1 µM | 13.6 µM
CN(C)[C@@H]1C(=O)C(C(=O)NCNc2nc3n[nH]nc3c(=O)[nH]2)=C(O)[C@@]2(O)C(=O)C3=C(O)c4c(O)cccc4[C@@](C)(O)[C@H]3C[C@@H]12 | > 100 µM | > 100 µM | > 100 µM | 22.1 µM | 27.2 µM | 8.25 µM | 98.6 µM | > 100 µM | > 100 µM | > 100 µM | 18.5 µM | > 100 µM | > 92.2 µM | > 100 µM | > 17.2 µM | 11.6 µM
O=C(O)C1C=CCN1C(=O)C1C=CCN1C(=O)C1C=CCN1 (stereo unspecified) (H-[ΔPro]-[ΔPro]-[ΔPro]-OH; configuration not given here) | > 100 µM | > 100 µM | > 100 µM | > 100 µM | > 100 µM | > 100 µM | > 100 µM | > 100 µM | > 100 µM | > 100 µM | > 100 µM | > 100 µM | > 100 µM | > 100 µM | > 100 µM | > 100 µM

Source: PubChem BioAssay (NCI)
